Reference: publication PMC12459020, “Chemical Probes that Target a Dissociative LuxR-Type Quorum Sensing Receptor in Gram-Negative Bacteria” (ACS Chemical Biology, 2025)
Like-named read-outs stand apart in the source and are kept apart here.

What was measured:
[1] = tested on: P. stewartii ΔesaI (ESN51); experiment: Mucoidy (exopolysaccharide) phenotypic assay on CPG agar; format: cell-based, Pantoea stewartii; conditions: concentration not given; CPG agar, ESN51
Text: In P. stewartii, EsaR regulates the production of the exopolysaccharide stewartan, which clogs the xylem of infected plants and leads to the wilt and lesions characteristic of Stewart’s wilt. EsaR binds directly to the rcsA promoter to repress transcription at low cell density, and when this repression is relieved at high cell density, RcsA contributes to activation of the cps gene cluster, which encodes the stewartan biosynthetic pathway. Exopolysaccharide production can be visualized by the growth of mucoid colonies on casamino acid-peptone-glucose (CPG) agar plates, and this phenotypic assay is commonly used to evaluate EsaR-mediated QS in P. stewartii. , To investigate the ability of the synthetic EsaR agonists uncovered here to regulate a QS-controlled phenotype in P. stewartii, selected compounds were tested for their ability to induce mucoidy in the P. stewartii (ΔesaI) strain, ESN51 (Figure ).
P. stewartii ΔesaI (ESN51) was grown on Casamino Peptone Glucose (CPG) agar (1 g/L casamino acids, 10 g/L peptone, 10 g/L glucose, 17 g/L agar) supplemented with a 1:1000 dilution of compound stocks or DMSO. Plates were incubated at 28 °C for 2 days without shaking before imaging with a smartphone camera (Apple iPhone X). Images are representative of at least two biological replicates.

[2] = biological target: T1, EsaR (Pantoea stewartii subsp. stewartii, UniProt P54293); experiment: cell-based; conditions: for activation at 100 µM / inhibition at 100 µM: 3.5 h; for activation at 100 µM: read-out: EsaR-repressed (pesaR) [%] agonism; for inhibition at 100 µM: read-out: EsaR-repressed (pesaR) antagonism
T1 construct: expressed in transfected cells; host or cells: E. coli JLD271 (K12 ΔsdiA), arabinose-induced pJN105-esaR
T1 sequence (P54293 whole entry): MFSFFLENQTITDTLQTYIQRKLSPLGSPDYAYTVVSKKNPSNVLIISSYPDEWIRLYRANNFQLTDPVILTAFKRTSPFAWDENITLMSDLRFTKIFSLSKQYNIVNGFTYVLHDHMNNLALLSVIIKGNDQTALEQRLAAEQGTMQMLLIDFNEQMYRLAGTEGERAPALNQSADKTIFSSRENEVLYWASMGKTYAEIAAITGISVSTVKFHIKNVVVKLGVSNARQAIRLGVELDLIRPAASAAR
Text: (§1) EsaR transcriptional activation and repression were examined using E. coli and P. stewartii reporters (strains and plasmids listed in Table S1; see Methods section for assay details). […] We constructed reporters in E. coli based on previously reported EsaR reporters (Table S1). Each strain contained an EsaR expression plasmid (pJN105-esaR) and a reporter plasmid with either an EsaR-activated promoter (pesaS) or an EsaR-repressed promoter (pesaR) upstream of luxABCDE or GFP.
(§2) Gibson assembly was used to create all constructs. Plasmid pJN105-esaR was created by amplifying esaR from pAC-esaR and inserting it into pJN105. pesaSlux was created by inserting pesaS, amplified from pPesaR-AC:gfp, into the pCS-pesaRlux backbone. The pesaR promoter was amplified from pCS-pesaRlux and inserted into the pPesaR-AC:gfp backbone to create pesaR:GFP. P. stewartii reporter strains were created by transforming pesaR:GFP or pPesaR-AC:gfp into ESN51 by conjugation using E. coli S17 λpir as the donor strain. See SI for details of E. coli ExpR2 reporter construction.
(§3) Overnight cultures were diluted 1:10 in LB medium with appropriate antibiotics and grown at 37 °C (200 rpm) to an OD600 of 0.22–0.27 before induction with 4 mg mL^–1 arabinose. OD600 was measured by placing 200 μL of culture into a 96-well plate and reading optical density using the BioTek Synergy 2 plate reader. Assays were performed in technical triplicate in clear-bottom, white and clear-bottom, black 96-well microtiter plates (Corning Costar 3903 and 3904) for luminescence and fluorescence reporters, respectively. Compounds were dissolved in DMSO, and 2 μL of this stock, or DMSO as a negative control, was added to each well prior to adding 198 μL of induced culture. Plates were incubated at 37 °C (200 rpm) for 3.5 h. Each well was mixed by pipetting before reading OD600 and either luminescence or fluorescence. Single-point screens were performed with one or two biological replicates, and all dose–response curves were performed in biological triplicate. EC50 values were calculated based on a nonlinear regression of log(concentration) vs response (three parameters) using GraphPad Prism 9 software.

[3] = biological target: T1, EsaR; experiment: cell-based; conditions: for activation at 100 µM / inhibition at 100 µM: 3.5 h; for activation at 100 µM: read-out: EsaR-activated (pesaS) [%] agonism; for inhibition at 100 µM: read-out: EsaR-activated (pesaS) antagonism; for EsaR agonism, in words: E. coli EsaR reporters, primary screen at 100 μM
Text: as §1, §2, §3

[4] = tested on: LuxR; conditions: cited from earlier work; for LuxR antagonism: 5 µM compound against 5 µM OHHL, negative values indicate potential activators, ref 6 (SI; Palmer et al., 2011); for LuxR [%] (agonism, activation): compounds at 200 μM, luminescence in V. fischeri ES114 (ΔluxI), ref Palmer et al., 2011 (main ref 44, SI ref 6)
[5] = tested on: ExpR1; conditions: cited from earlier work; for ExpR1 antagonism: 5 µM compound against 5 µM OHHL, negative values indicate potential activators, ref 6 (SI; Palmer et al., 2011); for ExpR1 [%] (agonism, activation): compounds at 200 μM, cellulase activity in P. versatile AC5117, ref Palmer et al., 2011 (main ref 44, SI ref 6)
[6] = tested on: ExpR2; conditions: cited from earlier work; for ExpR2 antagonism (percent inhibition): 5 µM compound against 5 µM OHHL, negative values indicate potential activators; for ExpR2 antagonism (percent inhibition) / IC50: ref 6 (SI; Palmer et al., 2011); for ExpR2 [%] (agonism, percent activation): compounds at 200 μM, cellulase activity in P. versatile AC5099, ref Palmer et al., 2011 (main ref 44, SI ref 6); for IC50: previously reported phenotypic reporter data

Row | SMILES | induction of mucoidy [1] | activation at 100 µM [2] [%] | inhibition at 100 µM [2] [%] | activation at 100 µM [3] [%] | inhibition at 100 µM [3] [%] | LuxR antagonism [4] [%] | LuxR [%] (agonism, activation) [4] | ExpR1 antagonism [5] [%] | ExpR1 [%] (agonism, activation) [5] | ExpR2 antagonism (percent inhibition) [6] [%] | ExpR2 [%] (agonism, percent activation) [6] | IC50 [6] [µM] | EsaR agonism, in words [3] | EC50 [2] [µM] | EC50 [3] [µM]
1 | CCCCCCS(=O)(=O)N[C@H]1CCOC1=O [A11] | did not induce mucoidy |  |  |  |  |  |  |  |  |  |  |  |  |  | 
2 | O=C(Cc1ccc2ccccc2c1)N[C@H]1CCOC1=O [E12] |  | 7 | 37 | 0 | -10 | 83 | 2 | 58 | 8 | 5 | 56 |  |  |  | 
3 | O=C(Cc1ccc(Br)cc1)N[C@H]1CCOC1=O [K3] |  | 18 | -76 | 9 | -24 | 79 | 3 | 71 | 4 | 62 | 25 | 0.85 |  |  | 
4 | O=C(N[C@H]1CCOC1=O)c1ccc(Br)cc1 [B6] |  | 11 |  | -4 |  |  | 2 |  | 2 |  | 7 |  |  |  | 
5 | CSc1cccc(CC(=O)N[C@H]2CCOC2=O)c1 [E7, 3-SCH3 PHL] |  | 11 | -3 | 23 | -26 | 88 | 4 | 79 | 0 | 71 | 13 |  | nearly inactive |  | 
6 | O=C(CCc1ccccc1)N[C@H]1CCOC1=O [B9] |  | 6 | -10 | 23 | -24 | 44 | 3 | 48 | 4 | 37 | 12 |  |  |  | 
7 | CCCCCCCC(=O)CC(=O)N[C@H]1CCOC1=O [ODHL, reference compound] |  | 37 | -94 | 65 | -69 | 47 | 2 | 42 | 6 | 33 | 48 |  |  | ≥ 101 | ≥ 65
8 | Cc1cccc(CC(=O)N[C@H]2CCOC2=O)c1 [E1] |  | 12 | 2 | 25 | 1 | 78 | 5 | 74 | 6 | 62 | 13 |  |  |  | 
9 | O=C(Cc1cc(C(F)(F)F)cc(C(F)(F)F)c1)N[C@H]1CCOC1=O [E9] |  | 41 | -17 | 60 | -67 | 0 | 107 | 4 | 9 | 16 | 15 |  |  |  | 
10 | CCCCCCCCCC(=O)N[C@H]1CCOC1=O [DHL, reference compound] |  | 4 | -59 | 17 | -11 | 96 | 12 | 91 | 6 | 76 | 44 | 0.9 |  |  | 
11 | CCCCCCCCCC(=O)CC(=O)N[C@H]1CCOC1=O [OdDHL, 3-(oxo)-dodecanoyl HL, reference compound] |  | 26 | -10 | 34 | -45 | 86 | 2 | 85 | 2 | 73 | 17 | 0.75 | agonized EsaR |  | 
12 | O=C(Cc1ccccc1Br)N[C@H]1CCOC1=O [C9] |  | 0.4 | -14 | -2 | -8 | 47 | 12 | 49 | 9 | 32 | 32 |  |  |  | 
13 | O=C(Cc1cccc2ccccc12)N[C@H]1CCOC1=O [E13] |  | 0.5 | -11 | -11 | -2 | 84 | 3 | 69 | 7 | -6 | 95 |  |  |  | 
